{"source": "patent US12624068B2", "about": "“Exon skipping by peptide nucleic acid derivatives” (OliPass Corporation, priority 2016, dated 2026)", "key": {"mdx mice [1]": {"system": "mdx mice", "assay": "Walking distance on tread mill in mdx mice", "format": "in vivo, mouse", "details": "first 30 weeks, injection solutions without Tween 80", "procedure": "“DMD-ASO 2” was chronically administered to mdx mice to evaluate its ability to improve muscle function by the walking distance on tread mill, and to inhibit the muscle degradation by the serum levels of creatine kinase (CK) and myoglobin.\n[Animals & Grouping] Male mdx mice (6 weeks old) were randomly assigned to three groups of the mdx negative control (no ASO treatment), “DMD-ASO 2” 10 pmole/Kg, and “DMD-ASO 2” […] based on the body weight. (N=16 per group) 12 male C57BL/6 mice (6 weeks old) were adopted as the wild type (WT) negative control group.\n[Injection Solutions & ASO Treatment] An aqueous mother stock solution of “DMD-ASO 2” was diluted either in PBS or in PBS supplemented with 0.1% Tween 80 to prepare injection solutions of […] “DMD-ASO 2” for 10 pmole/Kg and 30 pmole/Kg “DMD-ASO 2”, respectively. Supplementation of PBS injection solution with 0.1% Tween 80 was considered to be necessary to prevent the ASO molecules from sticking to plastic injection vials, pipette tips, and syringes.\n[Walking Distance on Tread Mill] During the first 30 weeks post grouping, the animals were administered with the injection solutions without Tween 80 2× per week at 2 mL/Kg. Starting from Week 7, the animals were subjected to walking on a tread mill (Model #LE8710, PanLab) on a weekly basis. […]"}, "full-length dystrophin": {"system": "full-length dystrophin", "assay": "Dystrophin western blot in triceps of mdx mice", "format": "in vivo", "details": "Week 48", "procedure": "[Full-length Dystrophin Expression in Triceps by Western Blot] Following homogenization at liquid nitrogen temperature, muscle (triceps) samples were subjected to lysis in RIPA buffer supplemented with 1% SDS. The protein concentration in each lysate was quantified by BCA assay against the BSA standard. […] of protein of each lysate was subjected to electrophoretic separation on an 8% PAGE gel. Then the PVDF membrane was probed with a C-terminal targeting dystrophin antibody (Cat. Number ab154168, Abcam)."}, "mdx mice [2]": {"system": "mdx mice", "assay": "Unscheduled death, sacrifice or lymphoma in chronically treated mdx mice", "format": "in vivo, mouse", "details": "DMD-ASO 1 50 pmole/Kg, DMD-ASO 2 or DMD-ASO 6 10 pmole/Kg, subcutaneous 2× per week, 66 weeks", "excerpt": "[Grouping & ASO Treatment] Male mdx mice (7 weeks old) were randomly assigned to 4 groups of 0 (mdx negative control), 10, 50, and 200 pmole/Kg “DMD-ASO 1” based on individual grip strength scores by grip test. (N=12 per group) A satellite group of 12 male C57BL/6 mice (7 weeks old) was included in this study as the wild type negative control group for the full-length dystrophin expression level.\nThe 50 and 200 pmole/Kg group subcutaneously received “DMD-ASO 1” as dissolved in PBS, 2× per week until the final sacrifice in Week 43. In the meantime, the 10 pmole/Kg group subcutaneously received “DMD-ASO 1” initially 2× per week during Week 0 to 8, and 3× per week afterwards to increase the ASO exposure.\n[Miscellaneous Findings] There were three cases of unscheduled sacrifice or death (Weeks 26, 39 and 43) in the mdx negative control group due to a large mass of muscular lymphoma developed most likely by chronic muscular inflammation.\n“DMD-ASO 1”, “DMD-ASO 2” and “DMD-ASO 6” were evaluated for their physiological effects in male mdx mice by long term subcutaneous administration. In this evaluation the animals were not subjected to physical tests requiring muscular stress in order to keep the transcription of the dystrophin gene undisturbed by excessive muscular stimulation.\n[Animals & Grouping] Male mdx mice (6 weeks old) were randomly assigned to 4 groups of the mdx negative control (no ASO treatment), “DMD-ASO 1” 50 pmole/Kg, “DMD-ASO 2” […], and “DMD-ASO 6” […] based on the body weight. (N=12-13 per group) 12 male C57BL/6 mice (6 weeks old) were adopted as the wild type (WT) negative control group.\n[Injection Solutions & ASO Treatment] Aqueous mother stock solutions of the ASOs were serially diluted in PBS to prepare the injection solutions of 25 nM “DMD-ASO 1” for 50 pmole/Kg “DMD-ASO 1”, 5 nM “DMD-ASO 2” for “DMD-ASO 2” 10 pmole/Kg, and 5 nM “DMD-ASO 6” for “DMD-ASO 6” 10 pmole/Kg. The animals were subcutaneously administered with the injection solutions at 2 mL/Kg, 2× per week."}, "[3]": {"system": "serum creatine kinase (CK)", "assay": "Serum creatine kinase level in mdx mice", "format": "in vivo", "details": "Week 48", "procedure": "(§1) [Terminal Sacrifice] In Week 48, the animals were subjected to terminal sacrifice for blood sampling. The blood samples were analyzed for the serum level of CK (Creatine Kinase Activity Assay Kit, Cat. Number ab155901, Abcam) and myoglobin (Myoglobin ELISA Kit, Cat. Number ab210965, Abcam) to assess the degree of muscle degradation according to the manufacturer's instructions. Muscle tissues were analyzed by western blot for the full-length dystrophin.\n(§2) [Terminal Sacrifice] All the survived animals were sacrificed for blood sampling in Week 66 post the grouping. The blood samples were subjected to ELISA assays for serum creatine kinase (CK) and serum myoglobin as described in “DMD Example 6”."}, "serum myoglobin": {"system": "serum myoglobin", "assay": "Serum myoglobin level in mdx mice", "format": "in vivo", "procedure": "as §1, §2"}, "10-mer complementary DNA": {"system": "10-mer complementary DNA", "assay": "Tm between PNA derivatives and 10-mer complementary DNA (N- or C-terminal)", "format": "binding", "details": "uncorrected", "method_in_brief": "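4 μM 10-mer PNA with 4 μM complementary 10-mer DNA in pH 7.16 buffer (10 mM sodium phosphate, 100 mM NaCl) was heated at 90 °C for a minute, slowly cooled to ambient, then Tm measured by UV absorbance at 260 nm.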"}, "rat SNAP25 pre-mRNA": {"system": "rat SNAP25 pre-mRNA", "assay": "SNAP25 nested PCR for exon skipping in PC12 cells", "format": "cell-based", "procedure": "PC12 cells were maintained in RPMI 1640 medium supplemented with 5% FBS, 10% horse serum, 1% streptomycin/penicillin, 1% L-glutamine, and 1% sodium pyruvate under 5% CO2 atmosphere at 37° C. Cells grown in 60 mm culture dish containing 5 mL culture medium were treated with “SNAP-ASO 3” at 0 (negative control), 10, 100 or 1,000 zM. [RNA Extraction & cDNA Synthesis by One-step PCR] Following an incubation with “SNAP-ASO 3” for 42 hours, the cells were treated with 100 μg/mL cycloheximide for another 6 hours in order to freeze the ribosomal translation. Then total RNA was extracted using “Universal RNA Extraction Kit” (Cat. Number 9767, Takara) according to the manufacturer's instructions. […] NO: 126); and SNAP-exon 14_reverse: (5'→3') […] [Nested PCR Amplification] […] NO: 128); SNAP-exon 14n_reverse: (5'→3') […] [Identification of Exon Skipping Products] The PCR products were subjected to electrophoretic separation on a 2% agarose gel. The bands of target size were collected and analyzed by Sanger Sequencing."}, "[4]": {"system": "full-length human SNAP25 mRNA", "assay": "SNAP25 qPCR in SiMa cells", "format": "cell-based", "details": "100 aM", "procedure": "[Cell Culture & ASO Treatment] SiMa cells were grown in 60 mm culture dish containing 5 mL culture medium, and were treated with “SNAP-ASO 3” at 0 zM (negative control), 1 zM, 10 zM, 100 zM or 1 aM, 10 aM, or 100 aM. (2 culture dishes per ASO concentration) [RNA Extraction & cDNA Synthesis] Total RNA was extracted from cells using “RNeasy Mini Kit” (Cat. Number 74106, Qiagen) according to the manufacturer's instructions. […] [qPCR Amplification] The PCR reactions were monitored with a Taqman probe [(5' 3') 56-[…] NO: 137)] targeting the junction of exon 6 and exon 7 against a set of exon-specific primers [SNAP-exon 6_forward: (5'→3') […] NO: 138); and SNAP-exon 8_reverse(2): (5'→3') […] NO: 139)]."}, "full-length SNAP25 mRNA": {"system": "full-length SNAP25 mRNA", "assay": "SNAP25 nested qPCR in PC12 cells", "format": "cell-based, rat", "procedure": "[Cell Culture & ASO Treatment] PC12 cells grown in 60 mm culture dish containing 5 mL culture medium were treated with “SNAP-ASO 3” at 0 (negative control), 10, 100 or 1,000 zM. (2 culture dishes per ASO concentration) [RNA Extraction & cDNA Synthesis by One-step RT-PCR] Following an incubation with “SNAP-ASO 3” for 42 hours, the cells were treated 100 μg/mL cycloheximide for another 6 hours to freeze the ribosomal translation. Then total RNA was extracted from cells using “Universal RNA Extraction Kit” (Cat. Number 9767, Takara) according to the manufacturer's instructions. […] NO: 130); and SNAP-exon 14_reverse: (5'→3') […] [Nested qPCR Amplification] […] NO: 132); and SNAP-exon 8q_reverse: (5'→3') […] The qPCR reaction was followed with a Taqman probe of [(5'→3') 5,6-[…] NO: 134)] targeting the junction of exon 7 and exon 8 in order to quantify the full-length SNAP25 mRNA."}}, "note": "[C(1O2)] = modified PNA monomer acting as cytosine, C(pOq) type, 1O2; [A(5)] = modified PNA monomer acting as adenine, A(p) type, p=5; [A(6)] = modified PNA monomer acting as adenine, A(p) type, p=6; [G(5)] = modified PNA monomer acting as guanine, G(p) type, p=5; {Fethoc} = N-terminal Fethoc cap; {NH2} = C-terminal amide", "data": [{"substance": "Fethoc-TTG(6)CA(5)G-AG(6)C-C(1O2)TC-AA(5)A-A(5)T-NH2 (antisense TTGCAGAGCCTCAAAAT; Fethoc N-cap, C-terminal amide, chemistry not fully specified) [DMD-ASO 2]", "values": [{"measurement": "walking distance on tread mill compared to the mdx negative control group", "setting": "mdx mice [1]", "result": "failed to show any significant improvements"}, {"measurement": "130K dystrophin band intensity (western blot, triceps)", "setting": "full-length dystrophin; 10 pmole/Kg", "result": "considerably stronger"}, {"measurement": "117K dystrophin band (western blot, triceps)", "setting": "full-length dystrophin; 10 and 30 pmole/Kg", "result": "markedly stronger"}, {"measurement": "premature deaths (unscheduled death or sacrifice)", "setting": "mdx mice [2]", "result": "one death in Week 56 and another in Week 62"}, {"measurement": "serum CK level smaller than the mdx negative control group by", "setting": "[3]; 10 pmole/Kg", "result": 58, "unit": "%"}, {"measurement": "serum CK level smaller than the mdx negative control group by", "setting": "[3]; 30 pmole/Kg", "result": 38, "unit": "%"}, {"measurement": "serum myoglobin level smaller than the mdx negative control group by", "setting": "serum myoglobin; 10 pmole/Kg, Week 48", "result": 67, "unit": "%"}, {"measurement": "serum myoglobin level smaller than the mdx negative control group by", "setting": "serum myoglobin; 30 pmole/Kg, Week 48", "result": 58, "unit": "%"}, {"measurement": "serum myoglobin level smaller than the mdx negative control group by", "setting": "serum myoglobin; DMD-ASO 1 50 pmole/Kg, DMD-ASO 2 or DMD-ASO 6 10 pmole/Kg, 2× per week, Week 66", "result": 49, "unit": "%"}]}, {"substance": "Fethoc-TG(5)T-TA(6)C-C(1O2)CT-GG(5)G-A(5)T-NH2 (antisense TGTTACCCTGGGAT; all peptide nucleic acid (PNA), [G(5)] at 2, 11, [A(6)] at 5, [C(1O2)] at 7, [A(5)] at 13, 5' {Fethoc}, 3' {NH2}; peptide nucleic acid written N to C) [SNAP-ASO 3]", "values": [{"measurement": "Tm Value, 10-mer DNA against C-Terminal", "setting": "10-mer complementary DNA", "result": 88.7, "unit": "°C"}, {"measurement": "Tm Value, 10-mer DNA against N-Terminal", "setting": "10-mer complementary DNA", "result": 77.3, "unit": "°C"}, {"measurement": "intensity of the full-length SNAP25 mRNA by nested PCR", "setting": "rat SNAP25 pre-mRNA; PC12 cells, 10, 100 or 1,000 zM", "result": "decreased most in the cells treated with 10 zM"}, {"measurement": "SNAP25 exon skipping by nested PCR", "setting": "rat SNAP25 pre-mRNA; PC12 cells, 10 zM, 42 hours then cycloheximide 6 hours", "result": "yielded a faint PCR band assignable to the skipping of exons 5-7"}, {"measurement": "inhibition of full-length human SNAP25 mRNA level (qPCR)", "setting": "[4]", "result": 40, "unit": "%"}, {"measurement": "decrease of full-length SNAP25 mRNA level (qPCR)", "setting": "full-length SNAP25 mRNA; PC12 cells, 10 zM", "result": "~50", "unit": "%"}, {"measurement": "decrease of full-length SNAP25 mRNA level (qPCR)", "setting": "full-length SNAP25 mRNA; PC12 cells, 100 zM", "result": 20, "unit": "%"}, {"measurement": "decrease of full-length SNAP25 mRNA level (qPCR)", "setting": "full-length SNAP25 mRNA; PC12 cells, 1,000 zM", "result": "slightly higher than the level of the cells without ASO treatment"}]}]}
